One assay has as its system Human Jurkat T-cells (clone N). As to the kind of experiment: Jurkat T-cell activation (anti-TCR, CD69 upregulation). Type of assay: cell-based.
Conditions: not given
The essentials:
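Jurkat cells in RPMI + 5% FBS preincubated with compound 1 h at 37 °C, then stimulated with anti-TCR C305 at 500 ng/ml for 20 h. CD69 surface expression stained with anti-CD69-APC and read by flow cytometry; IC50 versus solvent-only control.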
`CNC(=O)COc1cc(Nc2ncc(F)c(Nc3ccc(C)c(OCC(=O)NC)c3)n2)ccc1C` [Compound R926760] gave an IC50 of 10.2 µM.

On to `CCOC(=O)COc1ccc(Nc2ncc(F)c(Nc3ccc(OCC(=O)OCC)c(Cl)c3)n2)cc1Cl` [Compound R926676], for which the 50% inhibitory concentration (IC50) is above 10 µM.

For `Fc1cnc(Nc2ccc(N3CCOCC3)cc2)nc1Nc1ccc(N2CCOCC2)cc1` [Compound R926114], the IC50 turned out to be 9.91 µM.

`CCOC(=O)CNc1cccc(Nc2ncc(F)c(Nc3cccc(NCCO)c3)n2)c1` [Compound R950229] gave an IC50 of 3.77 µM.

In turn, `CNC(=O)COc1ccc(Nc2ncc(F)c(Nc3ccc4c(cnn4C)c3)n2)cc1` [Compound R935216] returned a 50% inhibitory concentration (IC50) of 3.48 µM.

As for `O=C(c1cc2cc(Nc3ncc(F)c(Nc4ccc5c(c4)OCCO5)n3)ccc2o1)N1CCCNCC1` [Compound R926767], the midpoint of inhibition, the IC50, lay at 2.67 µM.

Compound `CCOC(=O)C(C)(C)Oc1cccc(Nc2ncc(F)c(Nc3ccc4cc[nH]c4c3)n2)c1` [Compound R926909] had an IC50 of 4.65 µM. This IC50 lies about 1.7-fold higher than the previous one.

Compound `Cn1ncc2cc(Nc3ncc(F)c(Nc4cccc(O)c4)n3)ccc21` [Compound R935194] showed an IC50 of 0.732 µM.

Regarding `CC(=O)Nc1cccc(N(C(C)=O)c2ncc(F)c(N(C(C)=O)c3cccc(N(C(C)=O)C(C)=O)c3)n2)c1` [Compound R950245], the 50% inhibitory concentration (IC50) was above 10 µM.

On to `CNC(=O)COc1cccc(Nc2ncc(F)c(Nc3ccc4c(c3)OC(F)(F)C(F)(F)O4)n2)c1` [Compound R926732], for which the half-inhibitory concentration (IC50) was 5.26 µM. In other words, the single-digit micromolar range.

For `COC(=O)c1cc2cc(Nc3nc(Nc4cccc(OCc5noc(C)n5)c4)ncc3F)ccc2o1` [Compound R945131], the midpoint of inhibition, the IC50, lay at 19.2 µM.

`Fc1cnc(Nc2ccc3c(c2)OCCO3)nc1Nc1ccc(OCc2nc(-c3ccccc3)no2)cc1` [Compound R935140] yielded a half-inhibitory concentration (IC50) of 2.16 µM.

In turn, `CC(C)Oc1cccc(Nc2nc(Nc3ccc4oc(C(=O)N5CCOCC5)cc4c3)ncc2F)c1` [Compound R926489] came in with an IC50 above 10 µM.

For `CCOC(=O)COc1ccc(Nc2nc(Nc3ccc(OCC(=O)OCC)cc3)c(NC(=O)NC(=O)OCC)c(C(=O)OCC)n2)cc1` [Compound R926586], the IC50 is above 10 µM.

`CC(C)Oc1ccc(Nc2nc(Nc3ccc4oc(C(=O)N5CCCC5)cc4c3)ncc2F)cc1` [Compound R926703] showed an IC50 of 7.87 µM. In other words, the single-digit micromolar range.

`CCOC(=O)c1cnc(N[C@@H](Cc2ccccc2)C(=O)OCC)nc1N[C@@H](Cc1ccccc1)C(=O)OCC` [Compound R926526]: the 50% inhibitory concentration (IC50) was above 10 µM.

`O=C(O)COc1cccc(Nc2ncc(F)c(Nc3cccc(O)c3)n2)c1` [Compound R945126] showed an IC50 above 10 µM.

The compound `CC(C)Oc1ccc(Nc2nc(Nc3ccc4nn(C)cc4c3)ncc2F)cc1` [Compound R935298] displayed an IC50 of 2.32 µM.

In turn, `CN1CCN(C(=O)CNc2cccc(Nc3ncc(F)c(Nc4ccc5c(c4)OCCO5)n3)c2)CC1` [Compound R950194] came in with an IC50 of 5.13 µM. Against the preceding compound, the IC50 is about 2.2-fold higher.

Take `O=C(O)COc1ccc(Nc2ncc(F)c(Nc3ccc4c(c3)OCCO4)n2)cc1` [Compound R926238]: the IC50 is above 10 µM.

Consider `OCCCn1ncc2cc(Nc3ncc(F)c(Nc4ccc5c(c4)OCCO5)n3)ccc21` [Compound R935302], for which the 50% inhibitory concentration (IC50) was 0.8 µM.

For the compound `Cc1cc(Nc2ncc(F)c(Nc3ccc4cn[nH]c4c3)n2)cc(Cl)c1O` [Compound R935264], the half-inhibitory concentration (IC50) turned out to be 1.41 µM.

As for `Oc1cccc(Nc2ncc(F)c(Nc3ccc4cn[nH]c4c3)n2)c1` [Compound R935262], the 50% inhibitory concentration (IC50) is 3.11 µM. This IC50 is about 2.2-fold higher than that of the compound before.

`CNC(=O)COc1cc(Nc2ncc(F)c(Nc3ccc4c(c3)OCCO4)n2)ccc1OC` [Compound R926828]: half-maximal inhibition (IC50) was put at 1.01 µM.

In the case of `CCNC(=O)Oc1cccc(Nc2nc(Nc3cccc(OCC(=O)NC)c3)ncc2F)c1` [Compound R926919], the 50% inhibitory concentration (IC50) was above 10 µM.

Take `COC(=O)COc1cc(Nc2ncc(F)c(Nc3cccc(O)c3)n2)cc(OCC(=O)OC)c1` [Compound R926926]: the half-inhibitory concentration (IC50) came out at 13.1 µM.

In turn, `COC(=O)COc1ccc(Nc2ncc(F)c(Nc3ccc(OCC#N)cc3)n2)cc1` [Compound R945053] registered a 50% inhibitory concentration (IC50) of 2.67 µM.

The compound `Cc1nc(COc2cccc(Nc3nc(Nc4cccc(O)c4)ncc3F)c2)no1` [Compound R945132] had an IC50 of 20.2 µM.

For `OCCNc1cccc(Nc2ncc(F)c(Nc3cccc(NCCO)c3)n2)c1` [Compound R950181], 2.69 µM corresponded to half-maximal inhibition (IC50).

Take `COC(=O)c1cc2cc(Nc3ncc(F)c(Nc4ccc(OCc5nc(C)no5)cc4)n3)ccc2o1` [Compound R935146]: the IC50 is above 10 µM.

`O=C(CNc1cccc(Nc2ncc(F)c(Nc3ccc4c(c3)OCCO4)n2)c1)NCCNCc1ccccc1` [Compound R950198] yielded a half-maximal inhibitory concentration (IC50) of 1.99 µM.

In turn, `O=C(CNc1cccc(Nc2ncc(F)c(Nc3ccc4c(c3)OCCO4)n2)c1)NCCO` [Compound R950195] came in with an IC50 of 1.8 µM.

`CNC(=O)CCn1ncc2ccc(Nc3ncc(F)c(Nc4ccc(OC(C)C)cc4)n3)cc21` [Compound R935291] registered an IC50 of 3.14 µM. This IC50 lies about 1.7-fold higher than the previous one.

`CCOC(=O)COc1ccc(Nc2ncc(F)c(Nc3ccc4c(c3)OCCO4)n2)cc1` [Compound R925747] gave an IC50 above 10 µM.

As for `CNC(=O)COc1cc(O)cc(Nc2ncc(F)c(Nc3cccc(O)c3)n2)c1` [Compound R926929], the half-inhibitory concentration (IC50) was found to be 4 µM.

Compound `O=C1OCc2ccc(Nc3ncc(F)c(Nc4ccc5c(c4)OCCO5)n3)cc21` [Compound R926786] returned a half-maximal inhibitory concentration (IC50) of 7.36 µM.

The compound `CNC(=O)C(C)(Oc1cccc(Nc2ncc(F)c(Nc3ccc(OC(C)C)cc3)n2)c1)C(=O)NC` [Compound R935196] registered an IC50 of 1.1 µM. Compared with the last compound, the IC50 is about 6.7-fold lower.

Compound `CN(C)C(=O)COc1cccc(Nc2ncc(F)c(Nc3ccc4c(c3)NCCO4)n2)c1` [Compound R909290] showed a concentration for half-maximal inhibition (IC50) of 1.56 µM.

Take `CCOC(=O)CNc1cccc(Nc2ncc(F)c(Nc3cccc(O)c3)n2)c1` [Compound R950216]: the IC50 amounted to 3.86 µM.

For `O=C(COc1cccc(Nc2ncc(F)c(Nc3cccc(O)c3)n2)c1)NCCO` [Compound R926506], the 50% inhibitory concentration (IC50) was 2.68 µM.

The compound `OCCCn1ncc2ccc(Nc3ncc(F)c(Nc4ccc5oc(CO)cc5c4)n3)cc21` [Compound R935308] showed an IC50 of 1.27 µM.

Turning to `O=C(O)COc1ccc(Nc2ncc(F)c(Nc3cccc(O)c3)n2)cc1` [Compound R926564], the half-maximal inhibitory concentration (IC50) is above 10 µM.

For the compound `CN(C)C(=O)c1cc2cc(Nc3ncc(F)c(Nc4cccc(O)c4)n3)ccc2o1` [Compound R926718], the midpoint of inhibition, the IC50, lay at 12.4 µM.

`COC(=O)COc1cccc(Nc2ncc(F)c(Nc3ccc4c(c3)OCCCO4)n2)c1` [Compound R935185]: the 50% inhibitory concentration (IC50) came to 4.11 µM.

On to `COc1cccc(Nc2nc(Nc3cccc(OCC(=O)NCC(O)CO)c3)ncc2F)c1` (stereo not shown) [Compound R926739], for which the half-maximal inhibitory concentration (IC50) came out at 2.09 µM.

Still in this assay, the particulars now being: Homo sapiens, Jurkat.
On to `Cc1cc(O)cc(N(c2ccc3c(c2)OCCO3)c2nc(N)ncc2F)c1` [Compound R926893], for which the IC50 is above 10 µM.

In turn, `COc1ccc(C)c(Nc2ncc(F)c(Nc3ccc4c(c3)OCCO4)n2)c1` [Compound R926896] showed an IC50 above 10 µM.

The compound `c1ccc(-c2ccccc2Nc2ccnc(Nc3ccccc3-c3ccccc3)n2)cc1` [Compound R925804] yielded a half-maximal inhibitory concentration (IC50) above 10 µM.

`CC(C)Oc1ccc(Nc2ncc(F)c(Nc3ccc(C(C)(C)CO)cc3)n2)cc1` [Compound R935168] came in with a 50% inhibitory concentration (IC50) of 3.71 µM.

As to `Oc1ccc(CCNc2ccnc(NCCc3ccc(O)cc3)n2)cc1` [Compound R925790], the 50% inhibitory concentration (IC50) came out at 17 µM.

As to `Brc1cnc(Nc2ccccc2-c2ccccc2)nc1Nc1ccccc1-c1ccccc1` [Compound R925798], the concentration for half-maximal inhibition (IC50) is above 10 µM.

For the compound `CC(C)Oc1ccc(Nc2ncc(F)c(Nc3ccc(OC(C)C)cc3)n2)cc1` [Compound R926701], the IC50 is above 10 µM.

Turning to `OCCNc1ncc(F)c(Nc2ccc3c(c2)OCCO3)n1` [Compound R925746], the IC50 is above 10 µM.

Compound `O=[N+]([O-])c1cnc(Nc2ccc3c(c2)OC(F)(F)O3)nc1Nc1ccc2c(c1)OC(F)(F)O2` [Compound R940100] displayed an IC50 above 10 µM.

On to `Fc1cc(Nc2ncc(F)c(Nc3ccc(C(F)(F)F)c(F)c3)n2)ccc1C(F)(F)F` [Compound R926018], for which the 50% inhibitory concentration (IC50) was above 10 µM.

Regarding `Fc1cnc(Nc2ccc3c(c2)OCCO3)nc1NC1CCCCC1` [Compound R925794], the IC50 was above 10 µM.

`CC(C)Oc1ccc(Nc2nc(Nc3ccc(OCCO)cc3)ncc2F)cc1` [Compound R935160] had an IC50 of 2.37 µM.

As for `Cc1cnc(NCCc2ccc(O)cc2)nc1NCCc1ccc(O)cc1` [Compound R926397], the IC50 came to 12.5 µM.

Turning to `Oc1cccc(Nc2nc(Nc3cc(Cl)c(O)c(Cl)c3)ncc2F)c1` [Compound R926890], the IC50 is 11.3 µM.

Consider `Brc1cnc(Nc2cccc(-c3ccccc3)c2)nc1Nc1cccc(-c2ccccc2)c1` [Compound R925803], for which the 50% inhibitory concentration (IC50) was above 10 µM.

For the compound `CCOC(=O)C1CCN(C(=O)c2cccc(Nc3ncc(F)c(Nc4ccc5cc[nH]c5c4)n3)c2)CC1` [Compound R926935], the half-maximal inhibitory concentration (IC50) was 11.8 µM.

As for `Nc1nc(N(c2ccc(CO)cc2)c2ccc3c(c2)OCCO3)ncc1F` [Compound R925760], half-maximal inhibition (IC50) was put at 20.2 µM. This IC50 is about 1.7-fold higher than that of the compound before.

`CNC(=O)c1cccc(Nc2ncc(F)c(Nc3ccc4cc[nH]c4c3)n2)c1` [Compound R926933] had an IC50 of 2.79 µM.

Regarding `CC(C)(C)c1ccc(Nc2nc(Nc3ccc4oc(C(=O)O)cc4c3)ncc2F)cc1` [Compound R926481], the half-maximal inhibitory concentration (IC50) was above 10 µM.

On to `Oc1cccc(Nc2nc(NCCc3c[nH]c4ccccc34)ncc2F)c1` [Compound R945117], for which the concentration for half-maximal inhibition (IC50) is above 10 µM.

As for `CC(C)c1cccc(Nc2ncc(F)c(Nc3cccc(C(C)C)c3)n2)c1` [Compound R940297], the IC50 was above 10 µM.

As for `Oc1ccc(Nc2ncc(F)c(Nc3ccc(O)c(F)c3)n2)cc1F` [Compound R926681], the IC50 was 2 µM.

Turning to `Fc1cnc(Nc2cccc(-c3nnn[nH]3)c2)nc1Nc1ccc2c(c1)OCCO2` [Compound R926843], the half-maximal inhibitory concentration (IC50) was above 10 µM.

With `COc1cc(Nc2ncc(F)c(Nc3ccc4c(c3)OCCO4)n2)cc(OC)c1OC` [Compound R926762], it took 0.703 µM to reach half-maximal inhibition (IC50). That is a sub-micromolar value.

`Oc1cccc(Nc2nc(NCc3ccccn3)ncc2F)c1` [Compound R945166]: the 50% inhibitory concentration (IC50) was above 10 µM.

One may read the IC50 as the midpoint of a concentration-inhibition curve. Read a low IC50 as greater potency.

(Values after US8158621B2, “Methods of treating or preventing autoimmune diseases with 2,4-pyrimidinediamine compounds” (Rigel Pharmaceuticals, Inc., priority 2002, dated 2012).)
